“And” between values parts separate entries of the source, which are not always exact repeats. Equal values may be shown once.
Tested on: SUM149PT spheroids with HUVEC/MSC, viability
Assay: Anticancer human tumor SUM149PT cell line growth inhibition [GQUAD];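 further: spheroids exposed to drugs for seven days before readout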;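 on viability, T/C: percent viability relative to DMSO vehicle control taken as 100%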
Conditions: for viability, T/C: stronger effect = lower value
Source text: DNA G-quadruplex Stabilizer Agents in Combinations in Complex Spheroids
A high-throughput screen of multi-cell type tumor spheroids was designed to identify active combinations of DNA G-quadruplex stabilizer agents and targeted small molecules. Complex spheroids include a stromal component modeled by human endothelial cells (HUVEC) and fibroblasts modeled by human mesenchymal stem cells (MSCs). The concentration ranges selected for each drug and investigational agent were based upon clinically achievable concentrations if the clinical Cmax of the agent was known.
Compounds. The drugs and investigational agents: pidnarulex (CX-5461; NSC782164), APTO-253 (NSC789042), BRACO-19 (NSC847499), peposertib (NSC802822), ceralasertib (NSC780249), elimusertib (NSC800525), camonsertib (NSC841442), AZD-1390 (NSC803789), olaparib (NSC753686), talazoparib (NSC767125), ART-558 (NSC835418), sotorasib (NSC818433), MRTX-1133 (NSC836407), SN-38 (NSC673596), topotecan (NSC609699), etoposide (NSC141540), doxorubicin (NSC123127), gemcitabine (NSC613327), 5-fluorouracil (NSC19893), paclitaxel (NSC125973), vemurafenib (NSC761431), panobinostat (NSC761190), R-306465 (JNJ-16241199; NSC773264), adavosertib (NSC754352), TP-3654 (NSC805149), carboplatin (NSC241240), KSQ-4279 (NSC840948), and staurosporine (NSC755774) were obtained from the National Cancer Institute (NCI) Developmental Therapeutics Program Chemical Repository (34). The FDA-approved anticancer drug set is available from the NCI Developmental Therapeutics Program. […] The stock solutions were prepared in dimethyl sulfoxide (DMSO, Sigma-Aldrich, St. Louis, MO, cat. D2650) at 800-fold the tested concentration and stored at -70 degrees C prior to their use. All drugs and investigational agents were tested over a range starting from a high concentration at or near the clinical Cmax and decreasing in half-log increments. If the clinical Cmax for an agent had not been determined, the highest concentration tested was 10 microM.
2.3 Cell Culture. All cells were maintained in an incubator at 37 degrees C and 5% CO2 with 95% humidity. The PDC lines were cultured according to standard operating procedures established by the NCI PDMR. All PDCs were thawed and cultured in Matrigel-coated flasks prepared with a working solution of 1X Ham's F-12 nutrient mix, without supplementation (Invitrogen, cat. 11765054), 100 U/mL penicillin-streptomycin (Invitrogen, cat. 15140122), and 2.5% Matrigel (Corning Inc., cat. 354248) for the first three passages. The 857933-349-R-J2-PDC line was cultured in 6C/Colon 1B media, which includes advanced DMEM/F-12 (Thermo Fisher Scientific, cat. 12634028), 10 mM HEPES (Thermo Fisher Scientific, cat. 15630080), 1X GlutaMAX supplement (Thermo Fisher Scientific, cat. 35050061), 0.1 mg/mL primocin (InvivoGen, cat. ant-pm-2), 10% defined fetal bovine serum, heat inactivated (HyClone Laboratories Inc., cat. SH30070.03HI), 50% L-WRN conditioned media (ATCC, cat. CRL-3276), 1.25 mM N-Acetyl-L-cysteine (Sigma-Aldrich, cat. A9165), 10 mM nicotinamide (Sigma-Aldrich, cat. N0636), 1X B-27 supplement (Thermo Fisher Scientific, cat. 17504044), 1X N-2 supplement (Thermo Fisher Scientific, cat. 17502048), 10 microM Y-27632 dihydrochloride (Tocris Bioscience, cat. 1254), and 50 ng/mL human EGF recombinant protein (Thermo Fisher Scientific, cat. PHG0311). The 485176-168-R4-J1-PDC line was cultured in Panc media, which includes all 6C/Colon 1B media components plus 100 ng/mL human FGF-10 (Thermo Fisher Scientific, cat. 100-26), 500 nM SB-431542 (Selleckchem, cat. S1067), and gastrin (Tocris, cat. 3006).
[…]

[1] = curve of first compound, second compound 0.0316 µM
[2] = curve of first compound, second compound 0.1 µM
[3] = curve of first compound, second compound 0.316 µM
[4] = curve of first compound, second compound 1 µM
[5] = curve of first compound, second compound 3.16 µM
[6] = curve of first compound, second compound 10 µM
[7] = second compound 0.0316 µM, first compound 0.0316 µM
[8] = second compound 0.0316 µM, first compound 0.1 µM
[9] = second compound 0.0316 µM, first compound 0.316 µM
[10] = second compound 0.0316 µM, first compound 1 µM
[11] = second compound 0.0316 µM, first compound 3.16 µM
[12] = second compound 0.0316 µM, first compound 10 µM
[13] = second compound 0.1 µM, first compound 0.0316 µM
[14] = second compound 0.1 µM, first compound 0.1 µM
[15] = second compound 0.1 µM, first compound 0.316 µM
[16] = second compound 0.1 µM, first compound 1 µM
[17] = second compound 0.1 µM, first compound 3.16 µM
[18] = second compound 0.1 µM, first compound 10 µM
[19] = second compound 0.316 µM, first compound 0.0316 µM
[20] = second compound 0.316 µM, first compound 0.1 µM
[21] = second compound 0.316 µM, first compound 0.316 µM
[22] = second compound 0.316 µM, first compound 1 µM
[23] = second compound 0.316 µM, first compound 3.16 µM
[24] = second compound 0.316 µM, first compound 10 µM
[25] = second compound 1 µM, first compound 0.0316 µM
[26] = second compound 1 µM, first compound 0.1 µM
[27] = second compound 1 µM, first compound 0.316 µM
[28] = second compound 1 µM, first compound 1 µM
[29] = second compound 1 µM, first compound 3.16 µM
[30] = second compound 1 µM, first compound 10 µM
[31] = second compound 3.16 µM, first compound 0.0316 µM
[32] = second compound 3.16 µM, first compound 0.1 µM
[33] = second compound 3.16 µM, first compound 0.316 µM
[34] = second compound 3.16 µM, first compound 1 µM
[35] = second compound 3.16 µM, first compound 3.16 µM
[36] = second compound 3.16 µM, first compound 10 µM
[37] = second compound 10 µM, first compound 0.0316 µM
[38] = second compound 10 µM, first compound 0.1 µM
[39] = second compound 10 µM, first compound 0.316 µM
[40] = second compound 10 µM, first compound 1 µM
[41] = second compound 10 µM, first compound 3.16 µM
[42] = second compound 10 µM, first compound 10 µM

C#Cc1c(F)ccc2cc(O)cc(-c3ncc4c(N5CC6CCC(C5)N6)nc(OCC56CCCN5CC(F)C6)nc4c3F)c12 (stereo not drawn) + Cc1[nH]c2ccc(F)cc2c1-c1nc2c3cccnc3c3ncccc3c2[nH]1
IC50 [1]: 4720 nM | IC50 [2]: 5520 nM | IC50 [3]: 3770 nM | IC50 [4]: 5380 nM | IC50 [5]: 5610 nM | IC50 [6]: 3430 nM | viability, T/C [7]: 103% | viability, T/C [8]: 96.5% | viability, T/C [9]: 93% | viability, T/C [10]: 72% | viability, T/C [11]: 57.6% | viability, T/C [12]: 38.4% | viability, T/C [13]: 106% | viability, T/C [14]: 98.9% | viability, T/C [15]: 94.7% | viability, T/C [16]: 87.2% | viability, T/C [17]: 54.8% | viability, T/C [18]: 44.2% | viability, T/C [19]: 110% | viability, T/C [20]: 96.5% | viability, T/C [21]: 83.8% | viability, T/C [22]: 74.6% | viability, T/C [23]: 48.5% | viability, T/C [24]: 37% | viability, T/C [25]: 95% | viability, T/C [26]: 90% | viability, T/C [27]: 87.3% | viability, T/C [28]: 76.5% | viability, T/C [29]: 55.9% | viability, T/C [30]: 42.6% | viability, T/C [31]: 96.9% | viability, T/C [32]: 85.2% | viability, T/C [33]: 83.7% | viability, T/C [34]: 76.2% | viability, T/C [35]: 52.9% | viability, T/C [36]: 45% | viability, T/C [37]: 102% | viability, T/C [38]: 82.3% | viability, T/C [39]: 88.2% | viability, T/C [40]: 60.2% | viability, T/C [41]: 52.2% | viability, T/C [42]: 35.6%

C=CCn1c(=O)c2cnc(Nc3ccc(N4CCN(C)CC4)cc3)nc2n1-c1cccc(C(C)(C)O)n1
viability, T/C (compound 0.0316 µM): 98.3% and 95.2% and 87.7% | viability, T/C (compound 0.1 µM): 73% and 67% and 53.4% | viability, T/C (compound 0.316 µM): 32% and 32.6% and 26.9% | viability, T/C (compound 1 µM): 20.9% and 19.1% and 16.4% | viability, T/C (compound 3.16 µM): 12.8% and 11.1% and 8.08% | viability, T/C (compound 10 µM): 8.94% and 7.14% and 6.33% | IC50 (curve of compound): 196 nM and 180 nM and 115 nM

CC1COCCN1c1cc(-c2ccnn2C)c2ccnc(-c3ccn[nH]3)c2n1 (stereo not drawn) + CN(C)c1ccc(Nc2c3ccc(NC(=O)CCN4CCCC4)cc3nc3cc(NC(=O)CCN4CCCC4)ccc23)cc1
IC50 [1]: 93.3 nM | IC50 [2]: 92.7 nM | IC50 [3]: 91.3 nM | IC50 [4]: 89.7 nM | IC50 [5]: 88.4 nM | IC50 [6]: 65.7 nM | viability, T/C [7]: 96.3% | viability, T/C [8]: 46.9% | viability, T/C [9]: 29.1% | viability, T/C [10]: 23.2% | viability, T/C [11]: 38.2% | viability, T/C [12]: 28% | viability, T/C [13]: 87.8% | viability, T/C [14]: 47.3% | viability, T/C [15]: 29.6% | viability, T/C [16]: 29.4% | viability, T/C [17]: 30% | viability, T/C [18]: 36.1% | viability, T/C [19]: 87.5% | viability, T/C [20]: 46.8% | viability, T/C [21]: 26% | viability, T/C [22]: 26.5% | viability, T/C [23]: 28.1% | viability, T/C [24]: 29.2% | viability, T/C [25]: 82.6% | viability, T/C [26]: 46.6% | viability, T/C [27]: 26.4% | viability, T/C [28]: 23.7% | viability, T/C [29]: 26.8% | viability, T/C [30]: 29.4% | viability, T/C [31]: 79% | viability, T/C [32]: 46.5% | viability, T/C [33]: 20.7% | viability, T/C [34]: 23.5% | viability, T/C [35]: 25.6% | viability, T/C [36]: 24.2% | viability, T/C [37]: 69.9% | viability, T/C [38]: 38% | viability, T/C [39]: 28.9% | viability, T/C [40]: 24.9% | viability, T/C [41]: 25.4% | viability, T/C [42]: 21.9%

O=C(c1cc(Cc2n[nH]c(=O)c3ccccc23)ccc1F)N1CCN(C(=O)C2CC2)CC1
viability, T/C (compound 0.0316 µM): 92.5% and 110% and 104% | viability, T/C (compound 0.1 µM): 97.8% and 93.5% and 82.5% | viability, T/C (compound 0.316 µM): 92.7% and 102% and 99.8% | viability, T/C (compound 1 µM): 108% and 96.9% and 101% | viability, T/C (compound 3.16 µM): 106% and 108% and 97.4% | viability, T/C (compound 10 µM): 70.6% and 86.7% and 69.7% | IC50 (curve of compound): > 10000 nM

— PubChem BioAssay AID2060484 (Molecular Pharmacology Branch, DTP, NCI, 2025)
